Data: US10670605B2, “Cysteine reactive probes and uses thereof” (The Scripps Research Institute, priority 2015, dated 2020)

Tests used:
Experiment in all cases: Competitive isoTOP-ABPP in situ (fragment-treated cells)
Assay type in all cases: cell-based
[1] = target: cysteines in MDA-MB-231 and Ramos cells (Homo sapiens, UniProt Q9Y5S2)
[2] = target: T1, cysteines in MDA-MB-231 and Ramos cells (Homo sapiens, UniProt O94953); settings: 200 μM, insitu, ramos
T1 sequence (O94953 1-1096): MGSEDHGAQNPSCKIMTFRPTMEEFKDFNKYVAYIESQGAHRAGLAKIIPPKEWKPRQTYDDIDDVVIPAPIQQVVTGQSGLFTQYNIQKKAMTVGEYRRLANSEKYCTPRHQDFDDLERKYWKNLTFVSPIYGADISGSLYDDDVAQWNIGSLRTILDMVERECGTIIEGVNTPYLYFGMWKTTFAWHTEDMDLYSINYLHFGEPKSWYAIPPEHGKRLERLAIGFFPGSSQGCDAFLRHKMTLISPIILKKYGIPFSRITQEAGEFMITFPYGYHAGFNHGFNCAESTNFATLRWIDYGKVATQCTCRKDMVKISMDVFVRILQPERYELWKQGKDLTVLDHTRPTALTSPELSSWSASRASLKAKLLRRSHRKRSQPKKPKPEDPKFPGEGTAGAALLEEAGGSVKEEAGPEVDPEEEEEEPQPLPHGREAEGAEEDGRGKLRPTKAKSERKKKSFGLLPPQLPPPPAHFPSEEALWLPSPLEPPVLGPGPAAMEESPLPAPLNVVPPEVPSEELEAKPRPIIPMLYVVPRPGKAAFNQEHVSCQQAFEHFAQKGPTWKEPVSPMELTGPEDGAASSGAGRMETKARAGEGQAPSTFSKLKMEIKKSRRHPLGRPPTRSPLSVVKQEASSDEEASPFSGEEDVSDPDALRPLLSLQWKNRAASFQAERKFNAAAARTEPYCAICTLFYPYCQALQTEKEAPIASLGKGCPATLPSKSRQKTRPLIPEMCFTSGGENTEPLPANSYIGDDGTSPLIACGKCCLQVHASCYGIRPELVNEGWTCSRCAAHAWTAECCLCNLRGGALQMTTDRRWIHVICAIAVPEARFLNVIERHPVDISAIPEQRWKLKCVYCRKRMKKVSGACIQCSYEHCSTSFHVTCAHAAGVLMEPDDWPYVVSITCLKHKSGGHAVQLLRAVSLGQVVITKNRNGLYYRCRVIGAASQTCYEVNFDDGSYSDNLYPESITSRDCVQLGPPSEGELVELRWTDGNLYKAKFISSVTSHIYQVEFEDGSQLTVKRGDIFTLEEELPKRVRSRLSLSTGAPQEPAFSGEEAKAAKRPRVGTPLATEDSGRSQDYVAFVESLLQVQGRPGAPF

[3] = target: T2, cysteines in MDA-MB-231 and Ramos cells (Homo sapiens, UniProt Q8N2W9); settings: 200 μM, insitu
T2 sequence (Q8N2W9 1-510): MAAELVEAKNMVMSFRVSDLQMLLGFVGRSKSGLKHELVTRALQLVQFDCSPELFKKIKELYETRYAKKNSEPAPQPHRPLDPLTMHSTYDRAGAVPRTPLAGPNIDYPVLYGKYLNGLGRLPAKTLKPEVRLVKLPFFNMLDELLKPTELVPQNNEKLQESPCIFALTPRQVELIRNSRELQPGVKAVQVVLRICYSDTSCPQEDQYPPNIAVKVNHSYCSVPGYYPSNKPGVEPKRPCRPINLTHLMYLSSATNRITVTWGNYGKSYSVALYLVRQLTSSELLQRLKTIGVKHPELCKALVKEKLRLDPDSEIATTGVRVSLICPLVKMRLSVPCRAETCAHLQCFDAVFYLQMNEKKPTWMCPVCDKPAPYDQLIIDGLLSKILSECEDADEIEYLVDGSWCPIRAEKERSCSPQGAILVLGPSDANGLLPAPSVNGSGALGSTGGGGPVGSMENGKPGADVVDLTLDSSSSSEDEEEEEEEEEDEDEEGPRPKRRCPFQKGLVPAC

[4] = target: cysteines in MDA-MB-231 and Ramos cells (Homo sapiens, UniProt O95881); settings: 200 μM, insitu, 231
Chain of cysteines in MDA-MB-231 and Ramos cells (Homo sapiens, UniProt O95881) (O95881 27-172): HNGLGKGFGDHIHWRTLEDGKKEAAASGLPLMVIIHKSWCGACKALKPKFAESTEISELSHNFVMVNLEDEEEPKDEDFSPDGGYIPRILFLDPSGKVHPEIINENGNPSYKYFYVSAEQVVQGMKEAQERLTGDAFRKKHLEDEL

[5] = target: T3, cysteines in MDA-MB-231 and Ramos cells (Homo sapiens, UniProt Q8TD19); settings: 200 μM, insitu
T3 sequence (Q8TD19 1-979): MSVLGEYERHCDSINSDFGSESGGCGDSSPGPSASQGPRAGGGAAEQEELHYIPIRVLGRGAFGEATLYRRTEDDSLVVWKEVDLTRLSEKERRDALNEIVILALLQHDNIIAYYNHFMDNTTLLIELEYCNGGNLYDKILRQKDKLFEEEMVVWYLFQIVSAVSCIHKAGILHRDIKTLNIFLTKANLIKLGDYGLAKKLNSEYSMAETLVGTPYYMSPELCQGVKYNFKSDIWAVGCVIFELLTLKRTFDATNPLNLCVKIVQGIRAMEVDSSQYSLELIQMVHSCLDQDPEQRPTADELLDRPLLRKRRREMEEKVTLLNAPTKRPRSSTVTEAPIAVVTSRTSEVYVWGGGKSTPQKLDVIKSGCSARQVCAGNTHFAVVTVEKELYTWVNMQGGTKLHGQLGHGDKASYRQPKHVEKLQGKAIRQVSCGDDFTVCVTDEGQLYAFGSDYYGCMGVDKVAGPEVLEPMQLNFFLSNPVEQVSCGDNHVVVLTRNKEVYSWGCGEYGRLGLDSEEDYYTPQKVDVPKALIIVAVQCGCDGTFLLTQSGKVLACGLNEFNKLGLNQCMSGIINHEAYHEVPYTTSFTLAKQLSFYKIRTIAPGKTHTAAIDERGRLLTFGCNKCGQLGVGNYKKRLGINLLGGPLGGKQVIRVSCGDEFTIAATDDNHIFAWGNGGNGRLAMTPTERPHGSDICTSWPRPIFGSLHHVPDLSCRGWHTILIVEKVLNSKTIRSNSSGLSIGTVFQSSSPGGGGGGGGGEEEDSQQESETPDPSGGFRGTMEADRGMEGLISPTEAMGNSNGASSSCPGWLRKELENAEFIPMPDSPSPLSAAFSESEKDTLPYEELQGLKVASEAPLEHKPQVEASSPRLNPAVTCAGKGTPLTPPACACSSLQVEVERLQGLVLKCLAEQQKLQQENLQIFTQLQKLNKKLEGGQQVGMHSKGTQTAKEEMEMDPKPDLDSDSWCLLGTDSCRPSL

[6] = target: cysteines in MDA-MB-231 and Ramos cells (Homo sapiens, UniProt P46013); settings: 200 μM, insitu
Chain of cysteines in MDA-MB-231 and Ramos cells (Homo sapiens, UniProt P46013) (P46013 whole entry): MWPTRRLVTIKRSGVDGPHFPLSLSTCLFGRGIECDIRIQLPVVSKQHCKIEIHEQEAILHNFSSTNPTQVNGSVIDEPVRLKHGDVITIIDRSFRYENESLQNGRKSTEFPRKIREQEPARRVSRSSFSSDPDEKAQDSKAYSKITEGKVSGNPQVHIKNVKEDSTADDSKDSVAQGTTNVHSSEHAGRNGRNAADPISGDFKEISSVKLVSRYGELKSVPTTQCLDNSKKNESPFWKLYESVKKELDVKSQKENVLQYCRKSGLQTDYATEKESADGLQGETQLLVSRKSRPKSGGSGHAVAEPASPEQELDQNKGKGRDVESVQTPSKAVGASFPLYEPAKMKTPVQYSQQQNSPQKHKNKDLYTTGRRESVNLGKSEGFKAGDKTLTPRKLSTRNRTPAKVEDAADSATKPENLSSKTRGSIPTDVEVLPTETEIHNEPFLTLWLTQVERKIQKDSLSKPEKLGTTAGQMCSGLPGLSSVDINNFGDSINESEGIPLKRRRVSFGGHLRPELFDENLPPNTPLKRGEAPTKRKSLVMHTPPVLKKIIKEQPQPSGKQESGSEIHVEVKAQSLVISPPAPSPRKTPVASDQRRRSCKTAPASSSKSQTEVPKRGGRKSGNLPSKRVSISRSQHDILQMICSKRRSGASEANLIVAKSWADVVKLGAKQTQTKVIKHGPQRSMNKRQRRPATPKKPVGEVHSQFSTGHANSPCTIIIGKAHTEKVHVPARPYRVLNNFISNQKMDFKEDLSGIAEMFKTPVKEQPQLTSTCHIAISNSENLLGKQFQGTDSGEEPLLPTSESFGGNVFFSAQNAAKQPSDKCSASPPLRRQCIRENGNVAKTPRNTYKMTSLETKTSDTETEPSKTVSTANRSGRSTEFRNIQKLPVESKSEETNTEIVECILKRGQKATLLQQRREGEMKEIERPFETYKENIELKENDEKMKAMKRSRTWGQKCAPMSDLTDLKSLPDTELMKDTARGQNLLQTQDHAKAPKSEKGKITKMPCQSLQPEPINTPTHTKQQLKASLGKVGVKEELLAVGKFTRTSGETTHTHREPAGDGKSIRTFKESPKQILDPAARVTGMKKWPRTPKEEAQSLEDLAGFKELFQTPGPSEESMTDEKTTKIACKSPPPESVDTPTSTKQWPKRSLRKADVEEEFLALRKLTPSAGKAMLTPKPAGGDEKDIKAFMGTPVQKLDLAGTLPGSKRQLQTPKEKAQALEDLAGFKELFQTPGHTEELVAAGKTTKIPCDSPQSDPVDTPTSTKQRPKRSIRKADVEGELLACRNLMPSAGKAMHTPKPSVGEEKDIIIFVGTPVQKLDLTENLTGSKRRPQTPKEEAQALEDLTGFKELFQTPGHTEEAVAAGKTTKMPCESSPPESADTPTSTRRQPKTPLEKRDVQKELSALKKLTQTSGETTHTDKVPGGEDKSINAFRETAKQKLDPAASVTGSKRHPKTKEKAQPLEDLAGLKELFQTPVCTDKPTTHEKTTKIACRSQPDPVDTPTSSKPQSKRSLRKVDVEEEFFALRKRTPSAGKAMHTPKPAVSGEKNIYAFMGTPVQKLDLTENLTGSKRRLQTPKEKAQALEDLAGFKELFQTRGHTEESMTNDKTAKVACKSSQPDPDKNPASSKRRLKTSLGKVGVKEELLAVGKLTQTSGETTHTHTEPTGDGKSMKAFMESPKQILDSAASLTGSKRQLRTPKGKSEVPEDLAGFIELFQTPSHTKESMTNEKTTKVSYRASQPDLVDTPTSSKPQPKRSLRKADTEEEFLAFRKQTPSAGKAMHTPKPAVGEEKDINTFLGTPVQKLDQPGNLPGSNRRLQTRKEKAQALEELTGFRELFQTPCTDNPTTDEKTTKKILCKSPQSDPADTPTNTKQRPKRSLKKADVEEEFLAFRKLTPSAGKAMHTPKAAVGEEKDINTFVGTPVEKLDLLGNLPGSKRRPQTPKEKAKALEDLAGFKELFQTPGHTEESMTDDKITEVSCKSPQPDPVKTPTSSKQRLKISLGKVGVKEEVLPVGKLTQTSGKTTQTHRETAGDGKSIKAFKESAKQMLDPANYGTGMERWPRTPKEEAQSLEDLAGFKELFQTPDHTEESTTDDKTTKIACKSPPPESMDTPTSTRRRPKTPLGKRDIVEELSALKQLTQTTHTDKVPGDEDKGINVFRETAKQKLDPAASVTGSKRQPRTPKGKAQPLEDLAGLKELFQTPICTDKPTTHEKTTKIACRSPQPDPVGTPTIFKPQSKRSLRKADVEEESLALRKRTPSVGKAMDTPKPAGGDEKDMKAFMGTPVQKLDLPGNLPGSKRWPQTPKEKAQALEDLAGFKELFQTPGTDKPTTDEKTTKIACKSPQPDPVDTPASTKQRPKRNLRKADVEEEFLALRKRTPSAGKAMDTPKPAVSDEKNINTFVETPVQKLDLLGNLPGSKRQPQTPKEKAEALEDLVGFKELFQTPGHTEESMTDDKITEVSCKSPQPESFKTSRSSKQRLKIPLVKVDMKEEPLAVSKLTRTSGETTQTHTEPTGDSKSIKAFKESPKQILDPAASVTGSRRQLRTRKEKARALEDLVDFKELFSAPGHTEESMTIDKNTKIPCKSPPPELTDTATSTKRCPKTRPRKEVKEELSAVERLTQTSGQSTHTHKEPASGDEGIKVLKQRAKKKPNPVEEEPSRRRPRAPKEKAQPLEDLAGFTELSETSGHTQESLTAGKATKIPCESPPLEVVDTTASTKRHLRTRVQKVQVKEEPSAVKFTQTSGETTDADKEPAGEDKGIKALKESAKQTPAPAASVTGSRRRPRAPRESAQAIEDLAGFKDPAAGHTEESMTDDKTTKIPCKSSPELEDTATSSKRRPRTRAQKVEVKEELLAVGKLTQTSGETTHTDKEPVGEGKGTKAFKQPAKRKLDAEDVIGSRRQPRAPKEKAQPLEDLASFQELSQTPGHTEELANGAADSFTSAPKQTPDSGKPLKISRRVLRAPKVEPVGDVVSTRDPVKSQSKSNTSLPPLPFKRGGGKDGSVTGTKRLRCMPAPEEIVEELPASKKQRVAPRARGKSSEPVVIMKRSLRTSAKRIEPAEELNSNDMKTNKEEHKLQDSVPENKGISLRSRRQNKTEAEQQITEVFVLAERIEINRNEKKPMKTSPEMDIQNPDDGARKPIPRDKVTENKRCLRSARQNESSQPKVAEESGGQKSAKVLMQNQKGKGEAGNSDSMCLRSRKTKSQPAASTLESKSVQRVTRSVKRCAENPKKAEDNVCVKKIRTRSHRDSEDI

Chain of cysteines in MDA-MB-231 and Ramos cells (Homo sapiens, UniProt Q9Y5S2) (Q9Y5S2 whole entry): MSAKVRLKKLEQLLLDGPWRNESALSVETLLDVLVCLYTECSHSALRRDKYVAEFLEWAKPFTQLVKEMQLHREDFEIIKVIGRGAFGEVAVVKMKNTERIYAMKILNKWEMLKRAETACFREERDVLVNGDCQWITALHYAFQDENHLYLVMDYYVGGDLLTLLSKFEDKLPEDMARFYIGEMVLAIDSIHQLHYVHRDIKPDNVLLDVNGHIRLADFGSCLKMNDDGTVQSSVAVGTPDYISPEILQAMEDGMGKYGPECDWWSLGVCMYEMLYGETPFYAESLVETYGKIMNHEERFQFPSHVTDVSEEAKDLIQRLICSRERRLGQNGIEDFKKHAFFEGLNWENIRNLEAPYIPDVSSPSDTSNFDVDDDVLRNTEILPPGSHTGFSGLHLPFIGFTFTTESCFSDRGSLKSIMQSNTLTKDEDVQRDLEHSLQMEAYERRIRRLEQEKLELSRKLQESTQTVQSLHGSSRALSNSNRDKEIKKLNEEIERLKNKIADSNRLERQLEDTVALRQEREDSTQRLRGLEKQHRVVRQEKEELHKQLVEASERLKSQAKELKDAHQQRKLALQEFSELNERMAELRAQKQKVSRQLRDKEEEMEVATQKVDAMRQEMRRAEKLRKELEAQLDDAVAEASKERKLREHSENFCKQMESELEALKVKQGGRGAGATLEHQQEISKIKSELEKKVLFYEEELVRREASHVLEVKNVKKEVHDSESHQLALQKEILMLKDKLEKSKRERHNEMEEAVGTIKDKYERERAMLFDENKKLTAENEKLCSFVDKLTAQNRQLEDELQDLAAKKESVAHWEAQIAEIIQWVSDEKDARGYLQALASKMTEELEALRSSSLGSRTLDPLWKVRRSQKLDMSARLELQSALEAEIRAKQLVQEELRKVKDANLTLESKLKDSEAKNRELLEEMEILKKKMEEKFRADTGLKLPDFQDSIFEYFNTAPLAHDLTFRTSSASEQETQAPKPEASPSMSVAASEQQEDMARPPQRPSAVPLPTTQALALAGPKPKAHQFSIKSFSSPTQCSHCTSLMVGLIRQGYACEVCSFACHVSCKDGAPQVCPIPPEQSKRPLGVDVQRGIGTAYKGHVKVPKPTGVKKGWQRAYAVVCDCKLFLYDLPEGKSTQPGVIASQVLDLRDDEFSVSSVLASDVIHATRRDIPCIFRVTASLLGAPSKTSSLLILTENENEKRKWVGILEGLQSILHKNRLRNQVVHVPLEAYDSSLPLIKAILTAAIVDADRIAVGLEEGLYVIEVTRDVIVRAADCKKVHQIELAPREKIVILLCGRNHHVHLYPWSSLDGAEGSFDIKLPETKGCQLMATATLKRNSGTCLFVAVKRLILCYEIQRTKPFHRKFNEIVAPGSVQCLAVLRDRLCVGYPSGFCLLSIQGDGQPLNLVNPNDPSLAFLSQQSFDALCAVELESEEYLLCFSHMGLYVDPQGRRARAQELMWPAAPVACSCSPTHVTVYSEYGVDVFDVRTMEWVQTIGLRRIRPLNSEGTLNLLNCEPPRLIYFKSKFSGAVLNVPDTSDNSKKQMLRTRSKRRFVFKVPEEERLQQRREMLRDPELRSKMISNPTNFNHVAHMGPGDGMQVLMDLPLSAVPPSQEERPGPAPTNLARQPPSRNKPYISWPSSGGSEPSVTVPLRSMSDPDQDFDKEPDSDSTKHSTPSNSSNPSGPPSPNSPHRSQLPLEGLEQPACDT

For `COc1ccc2c(c1)CCCN2C(=O)CCl` [compound 2], the “isoTOP-ABPP reactivity Q9Y5S2_C1517 CDC42BPB” value ([1]; 200 μM, insitu, 231) was 20.0.

For `COc1ccc(C2CC(c3cccs3)=NN2C(=O)CCl)cc1` (stereo not drawn) [compound 4], the “isoTOP-ABPP reactivity Q9Y5S2_C1517 CDC42BPB” value ([1]; 100 μM in situ 231) was 20.0.

In the case of `O=C(CCl)N1CCN(S(=O)(=O)c2ccccc2F)CC1` [compound 10], the “isoTOP-ABPP ratio, cysteine O94953_C694” value [2] is reported as 3.9 and the “isoTOP-ABPP ratio, cysteine Q8N2W9_C326” value [3]; 231 is reported as 4.5.

With `Cn1cc(S(=O)(=O)N2CCOCC2)cc1C(=O)NC(=O)CCl` [compound 11] the “isoTOP-ABPP ratio, cysteine Q9Y5S2_C1517” value ([1]; 100 μM in situ 231) was 1.2.

In the case of `O=C(CCl)NC(=O)NC12CC3CC(CC(C3)C1)C2` [compound 12], the “isoTOP-ABPP ratio, cysteine O95881_C66” value [4] is reported as 20.0.

For `O=C(CCl)NCCc1c[nH]c2ccccc12` [compound 13], the “isoTOP-ABPP ratio, cysteine O94953_C694” value [2] was 1.5, the “isoTOP-ABPP ratio, cysteine O95881_C66” value [4] was 20.0 and the “isoTOP-ABPP ratio, cysteine Q8N2W9_C326” value ([3]; ramos) was 20.0. For the same compound, the “isoTOP-ABPP ratio, cysteine Q8TD19_C623” value ([5]; ramos) was 20.0.

In the case of `O=C(CCl)NC12CC3CC(CC(C3)C1)C2` [compound 21], the “isoTOP-ABPP ratio, cysteine Q8N2W9_C326” value [3]; 231 is reported as 1.0 and the “isoTOP-ABPP ratio, cysteine Q8TD19_C623” value [5]; 231 is reported as 0.8.

For `O=C(CCl)N1CCN(CC(=O)N2CCOCC2)CC1` [compound 29], the “isoTOP-ABPP ratio, O94953_C694” value [2] was 1.1 and the “isoTOP-ABPP ratio P46013_C903” value ([6]; ramos) was 1.6.

For `C=CC(=O)N(Cc1cccnc1)c1cc(C(F)(F)F)cc(C(F)(F)F)c1` [compound 31], the “isoTOP-ABPP ratio Q8TD19_C623” value [5]; 231 was 0.7 and the “isoTOP-ABPP ratio Q8TD19_C623” value ([5]; ramos) was 1.4.

With `C=CC(=O)Nc1cc(F)c(N2CCN(C(=O)OC(C)(C)C)CC2)c(F)c1` [compound 38] the “isoTOP-ABPP ratio O95881_C66” value [4] was 1.0, the “isoTOP-ABPP ratio P46013_C903” value [6]; 231 was 1.1 and the “isoTOP-ABPP ratio Q8N2W9_C326” value [3]; 231 was 0.9.

With `Cc1ccc(C=C(C#N)C(=O)NCCN2CCOCC2)cc1` [compound 41] the “isoTOP-ABPP ratio O95881_C66” value [4] was 1.0, the “isoTOP-ABPP ratio P46013_C903” value [6]; 231 was 1.0 and the “isoTOP-ABPP ratio Q8N2W9_C326” value [3]; 231 was 0.8. The “isoTOP-ABPP ratio Q8TD19_C623” value [5]; 231 was 0.6 and the “isoTOP-ABPP ratio Q9Y5S2_C1517” value ([1]; 200 μM, insitu, 231) was 0.4.

In the case of `CC1CCc2ccccc2N1C(=O)CCl` (stereo not drawn) [compound 45], the “isoTOP-ABPP ratio P46013_C903” value [6]; 231 is reported as 20.0 and the “isoTOP-ABPP ratio Q9Y5S2_C1517” value ([1]; 200 μM, insitu, 231) is reported as 20.0.

With `O=C(CCl)Nc1cccc2ncccc12` [compound 51] the “isoTOP-ABPP ratio P46013_C903” value [6]; 231 was 1.1.
